# Read-outs that look alike come from different tables or passages of the source.
# How the values were obtained:
# Assay type in all cases: cell-based
# NCI-H460 = assay: Human cancer cell line inhibitory activity, Lung-NSC NCI-H460
# BXPC-3 = assay: Human cancer cell line inhibitory activity, Pancreas-a BXPC-3
# MCF-7 = assay: Human cancer cell line inhibitory activity, Breast MCF-7
# DU-145 = assay: Human cancer cell line inhibitory activity, Prostate DU-145
# KM20L2 = assay: Human cancer cell line inhibitory activity, Colon KM20L2
# SF268 = assay: Human cancer cell line inhibitory activity, CNS SF268
Compound,GI50 Lung-NSC NCI-H460 (NCI-H460),GI50 Pancreas-a BXPC-3 (BXPC-3),GI50 Breast MCF-7 (MCF-7),GI50 Prostate DU-145 (DU-145),GI50 Colon KM20L2 (KM20L2),GI50 CNS SF268 (SF268),further results
"O=C1N[C@H]2[C@H](O)[C@H](O)[C@@H](O)[C@H](O)[C@@H]2c2cc3c(c(OP(=O)([O-])[O-])c21)OCO3.[Na+].[Na+] [Compound 1b, sodium pancratistatin 7-O-phosphate, reference compound]",0.19 µg/mL,0.20 µg/mL,0.20 µg/mL,0.026 µg/mL,0.17 µg/mL,0.079 µg/mL,–
"O=C1N[C@@H]2C(=C[C@H](O)[C@@H](O)[C@H]2O)c2cc3c(c(O)c21)OCO3 [Compound 2a, narciclasine, reference compound]",0.0084 µg/mL,0.0035 µg/mL,0.0032 µg/mL,0.0032 µg/mL,0.0032 µg/mL,0.0031 µg/mL,–
"O=C(O[C@H]1[C@H](O)[C@@H](O)[C@@H](O)[C@@H]2NC(=O)c3c(cc4c(c3O)OCO4)[C@H]21)c1ccccc1 [Compound 3a, phenpanstatin]",–,–,–,–,–,–,"GI50 (NCI-H460; Homo sapiens, NCI-H460, read-out: GI50 Lung-NSC NCI-H460): 0.0001 µg/mL; GI50 (BXPC-3; Homo sapiens, BXPC-3, read-out: GI50 Pancreas-a BXPC-3): 0.0019 µg/mL; GI50 (MCF-7; Homo sapiens, MCF7, read-out: GI50 Breast MCF-7): 0.00031 µg/mL; GI50 (DU-145; Homo sapiens, DU-145, read-out: GI50 Prostate DU-145): 0.00021 µg/mL; GI50 (KM20L2; Homo sapiens, KM-20L2, read-out: GI50 Colon KM20L2): 0.00037 µg/mL; GI50 (SF268; Homo sapiens, SF-268, read-out: GI50 CNS SF268): 0.00055 µg/mL"
"O=C(O[C@H]1[C@H](O)[C@H]2OP(=O)([O-])O[C@H]2[C@@H]2NC(=O)c3c(cc4c(c3O)OCO4)[C@H]21)c1ccccc1.[Na+] [Compound 3b, Sodium Phenpanstatin 3,4,O-cyclic Phosphate]",–,–,–,–,–,–,GI50 Lung-NSC NCI-H460 (NCI-H460; human cancer cell line NCI-H460): 0.029 µg/mL; GI50 Pancreas-a BXPC-3 (BXPC-3; human cancer cell line BXPC-3): 0.25 µg/mL; GI50 Breast MCF-7 (MCF-7; human cancer cell line MCF-7): 0.041 µg/mL; GI50 Prostate DU-145 (DU-145; human cancer cell line DU-145): 0.13 µg/mL; GI50 Colon KM20L2 (KM20L2; human cancer cell line KM20L2): 0.13 µg/mL; GI50 CNS SF268 (SF268; human cancer cell line SF268): 0.17 µg/mL
"O=C1N[C@H]2[C@H](OP(=O)([O-])[O-])[C@H](O)[C@@H](O)[C@H](O)[C@@H]2c2cc3c(c(O)c21)OCO3.[Na+].[Na+] [Compound 4a, Sodium Pancratistatin 4-O-phosphate]",0.38 µg/mL,0.18 µg/mL,0.18 µg/mL,0.94 µg/mL,0.24 µg/mL,0.12 µg/mL,–
"O=C1N[C@H]2[C@H](OP(=O)([O-])O)[C@H](O)[C@@H](O)[C@H](O)[C@@H]2c2cc3c(c(O)c21)OCO3.[Li+] [Compound 4c, Lithium Pancratistatin 4-O-phosphate]",0.35 µg/mL,0.30 µg/mL,0.39 µg/mL,0.20 µg/mL,0.25 µg/mL,0.28 µg/mL,–
"O=C1N[C@H]2[C@H](OP(=O)([O-])[O-])[C@H](O)[C@@H](O)[C@H](O)[C@@H]2c2cc3c(c(O)c21)OCO3.[K+].[K+] [Compound 4d, Potassium Pancratistatin 4-O-phosphate]",0.40 µg/mL,0.45 µg/mL,0.46 µg/mL,0.22 µg/mL,0.30 µg/mL,0.39 µg/mL,–

# — patent US7541346B2, “Pancratistatin cyclic phosphate prodrugs and phenpanstatin cyclic phosphate prodrugs” (Arizona Board of Regents, a body corporate of the State of …, priority 2003, dated 2009)
